{"source": "paper PMC4811302", "about": "“Human β-defensin 3 contains an oncolytic motif that binds PI(4,5)P2 to mediate tumour cell permeabilisation” (Oncotarget, 2015)", "key": {"[1]": {"test_system": "U937 cells", "experiment": "ATP bioluminescence release assay, U937", "type": "cell-based, human", "settings": "HBD-3 titrations, bioluminescence for 30 min, PBS with 0.1% BSA, concentration-dependent", "method": "ATP release assay was conducted using an ATP bioluminescence assay kit (Roche Diagnostics, Mannheim, Germany). U937 and HeLa cells were suspended at 1×10^6 cells/mL in PBS containing 0.1% (w/v) BSA, and mixed with luciferase/luciferin reagent at a ratio of 4:5. The mixture was added to HBD-3 samples and the level of ATP release measured immediately as bioluminescence emission signal intensity for 30 min with 30 s intervals."}, "[2]": {"test_system": "HeLa cells", "experiment": "PI-positive counting of GFP-PH versus GFP only transfected cells by CLSM", "type": "cell-based, human", "settings": "15 μM HBD-3, confocal imaging over 30 min, five independent experiments", "method": "Live imaging was performed on a Zeiss LSM-780 confocal microscope using a 63× oil immersion objective in a 37°C incubator with 5% CO2. Adherent HeLa cells were cultured overnight on coverslips while suspension U937 cells were immobilised onto 0.01% (w/v) poly-L-lysine-coated coverslips. Both cell types were prepared in serum-free RPMI 1640 medium containing 0.1% (w/v) BSA and 2 μg/mL PI. HBD-3 or BODIPY FL EDA-labeled HBD-3 was added directly to the imaging chamber to final concentration of 15 μM, via a capillary tube. In certain experiments, prior to imaging, cells were pre-stained with the membrane dye PKH67 as per manufacturer's instructions (Sigma-Aldrich) or transfected with expression vectors carrying GFP only or GFP-tagged Pleckstrin homology domain of phospholipase C-delta 1 (GFP-PH(PLCδ1)) (kindly provided by Christina Mitchell, Monash University, Australia), using Lipofectamine 3000 reagent (Invitrogen) as per manufacturer's instructions. For CLSM involving transfections, images were taken as 4×4 tiles over 30 min, and the resultant data for GFP and GFP-PH transfected cells were analysed by counting PI-positive cells."}}, "note": "Where no end group is shown, it is not given here."}
{"substance": "human β-defensin 3 (GIINTLQKYYCRVRGGRCAVLSCLPKEEQIGKCSTRGRKCCRRKK; not fully specified; cysteine pairing not given here; UniProt P81534 23-67, looked up) [HBD-3, human β-defensin 3, cationic antimicrobial peptide, recombinantly expressed in P. pastoris]", "values": [{"measurement": "cytoplasmic ATP release", "setting": "[1]", "value": "rapidly released"}, {"measurement": "fold lower number of PI-positive cells in GFP-PH(PLCδ) versus GFP only-transfected cells", "setting": "[2]", "value": 2.5, "unit": "fold"}]}
